Measured values as given in US10758534B2 (Vertex Pharmaceuticals Incorporated, priority 2014, dated 2020).

Target: T1, F508del (Homo sapiens, UniProt P13569, DEL508-508)
T1 construct: expressed in transfected cells
Test: Protocol 1: membrane potential optical assay (FLIPR III, voltage sensing dye), identification of potentiator compounds
Format: cell-based
Settings: Table 3, compounds of Table 1
Outline: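 Membrane potential in forskolin-activated, temperature-rescued F508del NIH 3T3 cells is followed with a voltage-sensing dye on FLIPR III. A chloride ion gradient created at the single addition step provides the driving force, after prior compound treatment.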

T1 sequence (P13569 with tags, fused parts or gaps DEL508-508): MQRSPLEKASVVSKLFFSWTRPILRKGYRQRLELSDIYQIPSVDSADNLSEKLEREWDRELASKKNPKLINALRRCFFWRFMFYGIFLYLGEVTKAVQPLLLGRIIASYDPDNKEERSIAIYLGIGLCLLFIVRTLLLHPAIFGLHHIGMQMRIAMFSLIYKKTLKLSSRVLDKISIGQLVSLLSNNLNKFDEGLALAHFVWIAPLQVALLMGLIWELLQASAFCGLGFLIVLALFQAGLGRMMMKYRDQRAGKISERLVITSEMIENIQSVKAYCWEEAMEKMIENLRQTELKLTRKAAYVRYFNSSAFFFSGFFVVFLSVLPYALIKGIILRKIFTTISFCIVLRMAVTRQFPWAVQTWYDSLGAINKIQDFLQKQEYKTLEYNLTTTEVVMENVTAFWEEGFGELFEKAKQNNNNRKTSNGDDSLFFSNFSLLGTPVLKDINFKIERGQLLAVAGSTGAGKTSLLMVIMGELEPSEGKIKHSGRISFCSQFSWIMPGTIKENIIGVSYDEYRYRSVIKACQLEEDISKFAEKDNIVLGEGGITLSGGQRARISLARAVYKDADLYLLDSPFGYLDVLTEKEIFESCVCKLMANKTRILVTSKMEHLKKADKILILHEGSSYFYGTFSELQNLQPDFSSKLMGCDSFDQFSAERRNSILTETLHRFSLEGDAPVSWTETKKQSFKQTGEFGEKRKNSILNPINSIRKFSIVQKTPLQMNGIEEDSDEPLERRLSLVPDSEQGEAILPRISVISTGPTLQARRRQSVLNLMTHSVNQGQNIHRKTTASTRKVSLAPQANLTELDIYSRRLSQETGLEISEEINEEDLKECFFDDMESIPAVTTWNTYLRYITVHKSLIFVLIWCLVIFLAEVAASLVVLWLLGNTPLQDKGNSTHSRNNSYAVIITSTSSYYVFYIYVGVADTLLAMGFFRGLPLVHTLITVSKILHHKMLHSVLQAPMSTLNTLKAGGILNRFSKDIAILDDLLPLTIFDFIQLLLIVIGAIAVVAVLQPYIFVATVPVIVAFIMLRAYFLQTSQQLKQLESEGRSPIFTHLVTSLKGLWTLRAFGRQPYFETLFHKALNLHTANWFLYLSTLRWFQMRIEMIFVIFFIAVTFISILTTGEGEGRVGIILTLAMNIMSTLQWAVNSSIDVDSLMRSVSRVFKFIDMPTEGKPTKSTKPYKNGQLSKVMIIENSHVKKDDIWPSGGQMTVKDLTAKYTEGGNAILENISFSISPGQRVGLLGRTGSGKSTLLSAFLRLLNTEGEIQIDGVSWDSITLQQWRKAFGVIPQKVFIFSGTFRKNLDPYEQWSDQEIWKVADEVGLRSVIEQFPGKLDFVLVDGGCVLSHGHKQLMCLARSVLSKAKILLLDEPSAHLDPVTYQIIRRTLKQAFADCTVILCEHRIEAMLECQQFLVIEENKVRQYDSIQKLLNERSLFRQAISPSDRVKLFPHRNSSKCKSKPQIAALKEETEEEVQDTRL

EC30 | SMILES
++ (“++” means between 3 uM and 10 uM) | Cc1cc(C)c(Oc2nc(C)ccc2C(=O)NS(=O)(=O)c2cccc(N3CCN(C)CC3)n2)c(C)c1 [Compound 1018, 6-methyl-N-[[6-(4-methylpiperazin-1-yl)-2-pyridyl]sulfonyl]-2-(2,4,6-trimethylphenoxy)pyridine-3-carboxamide]
++ (“++” means between 3 uM and 10 uM) | CC1CN(c2ncccc2C(=O)NS(=O)(=O)c2cccc(OCC3CCCO3)n2)C(C)(C)C1 (stereo not shown) [Compound 1764, N—[[6-(tetrahydrofuran-2-ylmethoxy)-2-pyridyl]sulfonyl]-2-(2,2,4-trimethylpyrrolidin-1-yl)pyridine-3-carboxamide]
+++ (“+++” means <3 uM) | CC(C)CC(C)Nc1ccc(-c2ccc(C(=O)NS(=O)(=O)c3cccc(N)n3)c(N3[C@H](C)CC[C@@H]3C)n2)cn1 (stereo in doubt) [Compound 1463, N-[(6-amino-2-pyridyl)sulfonyl]-6-[6-[[(1 S)-1,3-dimethylbutyl]amino]-3-pyridyl]-2-[(2S,5R)-2,5-dimethylpyrrolidin-1-yl]pyridine-3-carboxamide]
+++ (“+++” means <3 uM) | CC1CN(c2ncccc2C(=O)NS(=O)(=O)c2cccc(OCc3ccccc3F)n2)C(C)(C)C1 (stereo not shown) [Compound 1798, N—[[6-[(2-fluorophenyl)methoxy]-2-pyridyl]sulfonyl]-2-(2,2,4-trimethylpyrrolidin-1-yl)pyridine-3-carboxamide]
+++ (“+++” means <3 uM) | CCOc1cc(-c2ccc(C(=O)NS(=O)(=O)c3cccc(N)n3)c(N3C[C@@H](C)CC3(C)C)n2)cc(C(F)(F)F)c1 [Compound 1569, N-[(6-amino-2-pyridyl)sulfonyl]-6-[3-ethoxy-5-(trifluoromethyl)phenyl]-2-[(4S)-2,2,4-trimethylpyrrolidin-1-yl]pyridine-3-carboxamide]
++ (“++” means between 3 uM and 10 uM) | CCOc1ccc(-c2ccc(C(=O)NS(=O)(=O)c3ccc[nH]c3=O)c(Oc3c(C)cc(C)cc3C)n2)cc1F [Compound 901, 6-(4-ethoxy-3-fluoro-phenyl)-N-[(2-oxo-1H-pyridin-3-yl)sulfonyl]-2-(2,4,6-trimethylphenoxy)pyridine-3-carboxamide]
+++ (“+++” means <3 uM) | CCOc1cccc2c1CN(Cc1c(C)cc(C)cc1C)C2(C)C(=O)NS(=O)(=O)c1ncccc1O (stereo not shown) [Compound 1642, 4-ethoxy-N-[(3-hydroxy-2-pyridyl)sulfonyl]-1-methyl-2-[(2,4,6-trimethylphenyl)methyl]isoindoline-1-carboxamide]
++ (“++” means between 3 uM and 10 uM) | CC(C)(C)c1ccc(C(=O)NS(=O)(=O)c2cccc(N)n2)c(N2CCC(C(C)(C)O)CC2)n1 [Compound 1038, N-[(6-amino-2-pyridyl)sulfonyl]-6-tert-butyl-2-[4-(1-hydroxy-1-methyl-ethyl)-1-piperidyl]pyridine-3-carboxamide]
+++ (“+++” means <3 uM) | Cc1cc(C)c(Oc2nc(-c3ccc4c(c3)OCO4)ccc2C(=O)NS(=O)(=O)c2cccc(N)n2)c(C)c1 [Compound 1207, N-[(6-amino-2-pyridyl)sulfonyl]-6-(1,3-benzodioxol-5-yl)-2-(2,4,6-trimethylphenoxy)pyridine-3-carboxamide]
+++ (“+++” means <3 uM) | CCOc1cccc2c1CN(Cc1c(C)cc(C)cc1C)C2(C)C(=O)NS(=O)(=O)c1ccccc1N (stereo not shown) [Compound 1457, N-(2-aminophenyl)sulfonyl-4-ethoxy-1-methyl-2-[(2,4,6-trimethylphenyl)methyl]isoindoline-1-carboxamide]
+++ (“+++” means <3 uM) | Cc1ccc(-c2ccc(C(=O)NS(=O)(=O)c3cccc(N)n3)c(N3CC(C)CC3(C)C)n2)nc1OCC(C)(C)C (stereo not shown) [Compound 1610, N-[(6-amino-2-pyridyl)sulfonyl]-6-[6-(2,2-dimethylpropoxy)-5-methyl-2-pyridyl]-2-(2,2,4-trimethylpyrrolidin-1-yl)pyridine-3-carboxamide]
++ (“++” means between 3 uM and 10 uM) | COC1CCN(c2nc(C(C)(C)C)ccc2C(=O)NS(=O)(=O)c2ccc(N)cc2)CC1 [Compound 1298, N-(4-aminophenyl)sulfonyl-6-tert-butyl-2-(4-methoxy-1-piperidyl)pyridine-3-carboxamide]
+++ (“+++” means <3 uM) | COc1ncc(-c2ccc(C(=O)NS(=O)(=O)c3cccc(N)n3)c(Oc3c(C)cc(C)cc3C)n2)cc1Cl [Compound 1332, N-[(6-amino-2-pyridyl)sulfonyl]-6-(5-chloro-6-methoxy-3-pyridyl)-2-(2,4,6-trimethylphenoxy)pyridine-3-carboxamide]
++ (“++” means between 3 uM and 10 uM) | Cc1cc(C)c(Oc2nc(C3=CCC4(CC3)OCCO4)ccc2C(=O)NS(=O)(=O)c2cccc(N)n2)c(C)c1 [Compound 1558, N-[(6-amino-2-pyridyl)sulfonyl]-6-(1,4-dioxaspiro[4.5]dec-8-en-8-yl)-2-(2,4,6-trimethylphenoxy)pyridine-3-carboxamide]
+++ (“+++” means <3 uM) | Cc1cc(C)cc(-c2ccc(C(=O)NS(=O)(=O)c3cccc(N)n3)c(N3C[C@@H](C)CC3(C)C)n2)c1 [Compound 1771, N-[(6-amino-2-pyridyl)sulfonyl]-6-(3,5-dimethylphenyl)-2-[(4S)-2,2,4-trimethylpyrrolidin-1-yl]pyridine-3-carboxamide]
+++ (“+++” means <3 uM) | CC(C)Oc1ccc(-c2ccc(C(=O)NS(=O)(=O)c3cccc(N)n3)c(N3CCC[C@@H](c4ccccc4)C3)n2)cn1 [Compound 864, N-[(6-amino-2-pyridyl)sulfonyl]-6-(6-isopropoxy-3-pyridyl)-2-[(3S)-3-phenyl-1-piperidyl]pyridine-3-carboxamide]
+++ (“+++” means <3 uM) | C[C@@H]1CN(c2nc(-c3cccc(OC(F)(F)F)c3)ccc2C(=O)NS(=O)(=O)c2ccc[nH]c2=O)C(C)(C)C1 [Compound 1934, N-[(2-oxo-1H-pyridin-3-yl)sulfonyl]-6-[3-(trifluoromethoxy)phenyl]-2-[(4S)-2,2,4-trimethylpyrrolidin-1-yl]pyridine-3-carboxamide]
+++ (“+++” means <3 uM) | Cc1cc(C)c(Oc2nc(C(C)(C)C)ccc2C(=O)NS(=O)(=O)c2cccc(NCCN(C)C)n2)c(C)c1 [Compound 947, 6-tert-butyl-N-[[6-(2-dimethylaminoethylamino)-2-pyridyl]sulfonyl]-2-(2,4,6-trimethylphenoxy)pyridine-3-carboxamide]

SMILES | EC30
CC(C)CC(C)Oc1cccc(-c2ccc(C(=O)NS(=O)(=O)c3cccc(N)n3)c(N3CCCC3(C)C)n2)n1 (stereo not shown) [Compound 846, N-[(6-amino-2-pyridyl)sulfonyl]-6-[6-(1,3-dimethylbutoxy)-2-pyridyl]-2-(2,2-dimethylpyrrolidin-1-yl)pyridine-3-carboxamide] | +++ (“+++” means <3 uM)
CC(C)COc1cc(F)cc(-c2ccc(C(=O)NS(=O)(=O)c3cccc(N)n3)c(N3CC(C)(C)OCC3(C)C)n2)c1 [Compound 1675, N-[(6-amino-2-pyridyl)sulfonyl]-6-(3-fluoro-5-isobutoxy-phenyl)-2-(2,2,5,5-tetramethylmorpholin-4-yl)pyridine-3-carboxamide] | ++ (“++” means between 3 uM and 10 uM)
CC(=O)NC1CCN(S(=O)(=O)NC(=O)c2ccc(-c3cc(F)cc(OCC(C)C)c3)nc2N2CC(C)CC2(C)C)C1 (stereo not shown) [Compound 1391, N-(3-acetamidopyrrolidin-1-yl)sulfonyl-6-(3-fluoro-5-isobutoxy-phenyl)-2-(2,2,4-trimethylpyrrolidin-1-yl)pyridine-3-carboxamide] | +++ (“+++” means <3 uM)
COc1cccc(S(=O)(=O)NC(=O)c2ccc(-c3cc(F)cc(OCC(C)C)c3)nc2N2CCC(C)(C)CC2)n1 [Compound 1090, 2-(4,4-dimethyl-1-piperidyl)-6-(3-fluoro-5-isobutoxy-phenyl)-N-[(6-methoxy-2-pyridyl)sulfonyl]pyridine-3-carboxamide] | +++ (“+++” means <3 uM)
CC(C)COc1ccn(-c2ccc(C(=O)NS(=O)(=O)c3ccc[nH]c3=O)c(N3C[C@@H](C)CC3(C)C)n2)n1 [Compound 1896, 6-(3-isobutoxypyrazol-1-yl)-N-[(2-oxo-1H-pyridin-3-yl)sulfonyl]-2-[(4S)-2,2,4-trimethylpyrrolidin-1-yl]pyridine-3-carboxamide] | +++ (“+++” means <3 uM)
CC(C)COc1ccc(F)c(-c2ccc(C(=O)NS(=O)(=O)c3cccc(N)n3)c(N3[C@H](C)CC[C@@H]3C)n2)c1 [Compound 807, N-[(6-amino-2-pyridyl)sulfonyl]-2-[(2S,5R)-2,5-dimethylpyrrolidin-1-yl]-6-(2-fluoro-5-isobutoxy-phenyl)pyridine-3-carboxamide] | +++ (“+++” means <3 uM)
CCCCOc1cccc(-c2ccc(C(=O)NS(=O)(=O)c3ccc[nH]c3=O)c(Oc3c(C)cc(C)cc3C)n2)c1Cl [Compound 964, 6-(3-butoxy-2-chloro-phenyl)-N-[(2-oxo-1H-pyridin-3-yl)sulfonyl]-2-(2,4,6-trimethylphenoxy)pyridine-3-carboxamide] | +++ (“+++” means <3 uM)
Cc1cc(OCC(C)C)nc(-c2ccc(C(=O)NS(=O)(=O)c3cccc(N)n3)c(N3C[C@@H](C)CC3(C)C)n2)c1 [Compound 1656, N-[(6-amino-2-pyridyl)sulfonyl]-6-(6-isobutoxy-4-methyl-2-pyridyl)-2-[(4S)-2,2,4-trimethylpyrrolidin-1-yl]pyridine-3-carboxamide] | +++ (“+++” means <3 uM)
CC(C)COc1cc(F)cc(-c2ccc(C(=O)NS(=O)(=O)c3cccc(N)n3)c(N3[C@@H](C)CCC3(C)C)n2)c1 [Compound 1241, N-[(6-amino-2-pyridyl)sulfonyl]-6-(3-fluoro-5-isobutoxy-phenyl)-2-[(5S)-2,2,5-trimethylpyrrolidin-1-yl]pyridine-3-carboxamide] | +++ (“+++” means <3 uM)
CC(C)COc1cc(F)cc(-c2ccc(C(=O)NS(=O)(=O)c3cccc(N)n3)c(N3CCCC(C)C3C)n2)c1 (stereo not shown) [Compound 837, N-[(6-amino-2-pyridyl)sulfonyl]-2-(2,3-dimethyl-1-piperidyl)-6-(3-fluoro-5-isobutoxy-phenyl)pyridine-3-carboxamide] | +++ (“+++” means <3 uM)
